Measurements reported in patent US10183014B2, “Ocular formulations for drug-delivery and protection of the anterior segment of the eye” (PanOptica, Inc., priority 2014, dated 2019).
Like-named read-outs stand apart in the source and are kept apart here.

Key:
[1] = tested on: pathologic angiogenesis; test: Pathologic angiogenesis, rat growth plate model, systemic administration; assay type: in vivo
[2] = biological target: FLT4 (VEGFR-3) (Homo sapiens, UniProt P35916); test: In vitro inhibition of tyrosine kinases; assay type: biochemical; conditions: read-out: Mean % Inhibition at 1 μM Compound-I; 1 μM (568.9 ng/mL)
Chain of FLT4 (VEGFR-3) (P35916 25-1363, species assumed): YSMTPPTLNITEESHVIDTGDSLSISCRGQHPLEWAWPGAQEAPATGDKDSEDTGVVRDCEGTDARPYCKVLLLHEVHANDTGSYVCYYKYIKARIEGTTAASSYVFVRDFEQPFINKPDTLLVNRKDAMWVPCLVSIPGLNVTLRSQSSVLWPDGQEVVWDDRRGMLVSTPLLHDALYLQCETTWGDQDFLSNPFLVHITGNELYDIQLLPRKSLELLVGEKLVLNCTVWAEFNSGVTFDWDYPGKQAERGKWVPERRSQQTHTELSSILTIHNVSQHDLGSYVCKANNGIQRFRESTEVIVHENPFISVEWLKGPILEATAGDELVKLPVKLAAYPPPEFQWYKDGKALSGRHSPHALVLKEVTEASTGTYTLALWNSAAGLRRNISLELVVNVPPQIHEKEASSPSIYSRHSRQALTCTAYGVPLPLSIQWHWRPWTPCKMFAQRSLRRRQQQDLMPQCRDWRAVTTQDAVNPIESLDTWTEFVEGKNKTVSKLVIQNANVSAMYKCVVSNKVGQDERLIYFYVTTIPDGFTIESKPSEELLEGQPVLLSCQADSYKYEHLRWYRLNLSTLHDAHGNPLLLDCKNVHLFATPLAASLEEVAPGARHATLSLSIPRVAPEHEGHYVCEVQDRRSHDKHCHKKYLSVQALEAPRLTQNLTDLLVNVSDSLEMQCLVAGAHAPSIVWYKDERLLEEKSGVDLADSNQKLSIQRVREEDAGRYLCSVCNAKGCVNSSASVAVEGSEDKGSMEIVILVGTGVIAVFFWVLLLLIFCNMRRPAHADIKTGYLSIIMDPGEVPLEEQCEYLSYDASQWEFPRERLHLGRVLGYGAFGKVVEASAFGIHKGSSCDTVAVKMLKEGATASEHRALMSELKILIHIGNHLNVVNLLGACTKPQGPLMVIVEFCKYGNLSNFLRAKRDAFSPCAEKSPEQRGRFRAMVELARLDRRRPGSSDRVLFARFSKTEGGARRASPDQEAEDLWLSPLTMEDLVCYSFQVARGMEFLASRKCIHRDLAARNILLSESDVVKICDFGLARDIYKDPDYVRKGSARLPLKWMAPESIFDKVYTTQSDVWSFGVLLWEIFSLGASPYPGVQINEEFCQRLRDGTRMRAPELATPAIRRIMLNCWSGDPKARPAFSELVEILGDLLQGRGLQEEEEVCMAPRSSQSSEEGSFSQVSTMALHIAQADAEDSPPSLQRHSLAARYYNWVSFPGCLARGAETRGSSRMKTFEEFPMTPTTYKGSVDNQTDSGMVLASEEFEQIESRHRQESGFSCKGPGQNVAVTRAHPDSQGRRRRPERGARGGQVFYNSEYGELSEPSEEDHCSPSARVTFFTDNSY

[3] = biological target: FGFR-2 (Homo sapiens, UniProt P21802); test: In vitro inhibition of tyrosine kinases; assay type: biochemical
Chain of FGFR-2 (P21802 22-821, species assumed): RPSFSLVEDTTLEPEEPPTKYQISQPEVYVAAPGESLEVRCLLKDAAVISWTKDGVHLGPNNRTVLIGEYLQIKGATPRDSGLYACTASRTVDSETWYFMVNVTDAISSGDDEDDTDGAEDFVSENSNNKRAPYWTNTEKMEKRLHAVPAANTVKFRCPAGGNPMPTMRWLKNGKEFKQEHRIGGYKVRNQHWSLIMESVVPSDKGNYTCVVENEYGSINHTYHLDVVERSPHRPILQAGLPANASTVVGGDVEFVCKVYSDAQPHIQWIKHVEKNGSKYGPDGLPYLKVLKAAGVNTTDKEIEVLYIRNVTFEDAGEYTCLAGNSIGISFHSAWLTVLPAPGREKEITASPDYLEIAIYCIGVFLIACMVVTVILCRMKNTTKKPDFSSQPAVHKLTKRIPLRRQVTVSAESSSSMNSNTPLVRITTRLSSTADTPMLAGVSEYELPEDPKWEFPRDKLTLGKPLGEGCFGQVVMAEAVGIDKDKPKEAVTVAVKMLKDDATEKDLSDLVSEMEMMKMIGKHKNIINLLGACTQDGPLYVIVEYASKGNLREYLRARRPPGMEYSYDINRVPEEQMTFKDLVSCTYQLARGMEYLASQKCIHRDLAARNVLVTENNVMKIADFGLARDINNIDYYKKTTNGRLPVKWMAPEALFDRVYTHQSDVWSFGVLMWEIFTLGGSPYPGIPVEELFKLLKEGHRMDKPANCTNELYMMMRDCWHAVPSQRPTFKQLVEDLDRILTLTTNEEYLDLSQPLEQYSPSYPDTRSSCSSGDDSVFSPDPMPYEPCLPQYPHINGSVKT

[4] = biological target: KDR (VEGFR-2) (Homo sapiens, UniProt P35968); test: In vitro inhibition of tyrosine kinases; assay type: biochemical; conditions: 300 nM (170.67 ng/mL)
[5] = biological target: EPHA-1 (Homo sapiens, UniProt P21709); test: In vitro inhibition of tyrosine kinases; assay type: biochemical; conditions: read-out: Mean % Inhibition at 1 μM Compound-I; 1 μM (568.9 ng/mL)
Chain of EPHA-1 (P21709 26-976, species assumed): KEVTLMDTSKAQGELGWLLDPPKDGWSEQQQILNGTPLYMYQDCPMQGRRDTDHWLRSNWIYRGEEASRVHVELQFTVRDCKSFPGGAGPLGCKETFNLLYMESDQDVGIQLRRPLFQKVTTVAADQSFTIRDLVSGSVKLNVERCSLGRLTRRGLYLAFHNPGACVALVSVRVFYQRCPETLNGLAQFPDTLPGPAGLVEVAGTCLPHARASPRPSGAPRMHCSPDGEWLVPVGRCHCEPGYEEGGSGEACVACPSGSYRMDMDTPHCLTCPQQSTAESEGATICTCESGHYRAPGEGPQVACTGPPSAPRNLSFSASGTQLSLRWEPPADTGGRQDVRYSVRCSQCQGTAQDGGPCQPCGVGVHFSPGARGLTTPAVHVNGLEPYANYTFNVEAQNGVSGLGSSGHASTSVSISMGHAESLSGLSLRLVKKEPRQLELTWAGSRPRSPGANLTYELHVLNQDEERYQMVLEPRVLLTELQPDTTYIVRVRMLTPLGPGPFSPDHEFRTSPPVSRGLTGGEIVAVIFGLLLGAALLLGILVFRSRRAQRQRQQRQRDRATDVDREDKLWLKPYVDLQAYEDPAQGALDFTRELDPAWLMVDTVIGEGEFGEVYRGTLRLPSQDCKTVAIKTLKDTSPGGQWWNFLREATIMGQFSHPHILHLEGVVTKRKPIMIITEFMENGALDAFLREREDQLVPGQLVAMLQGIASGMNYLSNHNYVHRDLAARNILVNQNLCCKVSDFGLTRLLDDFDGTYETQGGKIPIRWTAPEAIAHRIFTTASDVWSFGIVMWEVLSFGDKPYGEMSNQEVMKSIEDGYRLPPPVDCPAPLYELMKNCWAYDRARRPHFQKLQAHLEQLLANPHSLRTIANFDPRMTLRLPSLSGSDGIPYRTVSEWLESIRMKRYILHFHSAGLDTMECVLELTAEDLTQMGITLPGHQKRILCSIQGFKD

[6] = Ocular toxicology studies (tolerability and ocular tissue concentrations); assay type: in vivo, Dutch-Belted rabbits; conditions: for concentration at 29 days: Dutch-Belted, topical, 0.3 %, 0.3% Ophthalmic Gel Drop (with and without benzylalkonium chloride), twice daily
Description: Retinal function was normal in all test article and vehicle treated groups during full-field electroretinograms performed in rabbits.

[7] = biological target: PDGFRA T674I (Homo sapiens, UniProt P16234, T674I); test: In vitro inhibition of tyrosine kinases; assay type: biochemical; conditions: read-out: Mean % Inhibition at 1 μM Compound-I; 1 μM (568.9 ng/mL)
Chain of PDGFRA T674I (P16234 24-1089 T674I): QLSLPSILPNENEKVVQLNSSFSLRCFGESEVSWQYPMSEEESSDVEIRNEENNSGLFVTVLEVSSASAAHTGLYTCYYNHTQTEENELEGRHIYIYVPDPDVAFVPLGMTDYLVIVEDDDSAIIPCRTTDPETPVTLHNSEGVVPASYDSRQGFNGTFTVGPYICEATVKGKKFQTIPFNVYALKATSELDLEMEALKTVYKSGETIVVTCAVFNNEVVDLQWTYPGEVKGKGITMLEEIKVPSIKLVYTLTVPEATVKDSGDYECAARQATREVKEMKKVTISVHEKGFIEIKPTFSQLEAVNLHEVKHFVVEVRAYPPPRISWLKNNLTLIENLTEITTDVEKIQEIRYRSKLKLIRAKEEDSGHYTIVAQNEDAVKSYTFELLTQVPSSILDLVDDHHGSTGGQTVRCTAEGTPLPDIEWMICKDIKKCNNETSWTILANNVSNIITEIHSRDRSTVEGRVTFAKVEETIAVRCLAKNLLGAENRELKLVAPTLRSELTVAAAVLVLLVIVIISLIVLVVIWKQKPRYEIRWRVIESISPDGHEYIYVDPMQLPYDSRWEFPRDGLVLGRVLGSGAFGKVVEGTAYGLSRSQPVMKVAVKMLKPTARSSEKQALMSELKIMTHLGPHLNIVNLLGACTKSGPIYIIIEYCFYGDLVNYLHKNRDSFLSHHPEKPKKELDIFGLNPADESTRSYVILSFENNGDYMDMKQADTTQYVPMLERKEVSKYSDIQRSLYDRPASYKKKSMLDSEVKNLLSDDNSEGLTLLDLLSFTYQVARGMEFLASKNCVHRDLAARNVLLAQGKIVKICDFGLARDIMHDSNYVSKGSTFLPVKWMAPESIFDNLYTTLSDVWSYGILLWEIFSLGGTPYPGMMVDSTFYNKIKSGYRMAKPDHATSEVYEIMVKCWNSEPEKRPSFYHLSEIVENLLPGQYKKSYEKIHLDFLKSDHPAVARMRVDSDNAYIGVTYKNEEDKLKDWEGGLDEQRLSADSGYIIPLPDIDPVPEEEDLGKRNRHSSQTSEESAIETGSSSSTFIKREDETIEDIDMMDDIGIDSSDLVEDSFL

[8] = PK with topical ocular Compound-I in sodium phosphate-based Gel Drop; assay type: in vivo, Dutch-Belted rabbits; conditions: Dutch-Belted, rabbit, Gel Drop 6 mg/ml, 3x per day, 4 days, 1 hour after last dose
Description: The Gel Drop of Compound-I was applied to eyes of Dutch-belted rabbits.

[9] = 1- to 5-day PK with topical ocular Compound-I formulations (Example 5); assay type: in vivo, Dutch Belted rabbits; conditions: for concentration at 0.5 h / concentration at 8 h / concentration at 24 h / concentration at 4 h / concentration at 2 h / concentration at 1 h: Dutch Belted, rabbit, topical
Method: On day 1, Groups 1, 2, 4-6, 8, 10, 11, 13, 15, and 17 received one dose (q.d.) for either one (1) or four (4) days.
Peripheral retina and peripheral choroid samples were assayed only for Groups 1-8, 12, 14, and 16 per study protocol.

[10] = Concentrations of Compound-I in ocular fluids and tissues, 0.4% cyclodextrin solutions, 24-day study; assay type: in vivo, Dutch-Belted rabbits; conditions: 0.4% cyclodextrin-based solutions, twice daily, day 24, 1 hour after first daily dose; for concentration at 1 h: Dutch-Belted, rabbit, topical, 0.4 % (4 mg/mL)
Method: The ocular solution of Compound-I comprising cyclodextrin was prepared and tested in different groups of animals.

[11] = biological target: SNF1LK2 (Homo sapiens, UniProt Q9H0K1); test: In vitro inhibition of tyrosine kinases; assay type: biochemical; conditions: read-out: Mean % Inhibition at 1 μM Compound-I; 1 μM (568.9 ng/mL)
Chain of SNF1LK2 (Q9H0K1 whole entry, species assumed): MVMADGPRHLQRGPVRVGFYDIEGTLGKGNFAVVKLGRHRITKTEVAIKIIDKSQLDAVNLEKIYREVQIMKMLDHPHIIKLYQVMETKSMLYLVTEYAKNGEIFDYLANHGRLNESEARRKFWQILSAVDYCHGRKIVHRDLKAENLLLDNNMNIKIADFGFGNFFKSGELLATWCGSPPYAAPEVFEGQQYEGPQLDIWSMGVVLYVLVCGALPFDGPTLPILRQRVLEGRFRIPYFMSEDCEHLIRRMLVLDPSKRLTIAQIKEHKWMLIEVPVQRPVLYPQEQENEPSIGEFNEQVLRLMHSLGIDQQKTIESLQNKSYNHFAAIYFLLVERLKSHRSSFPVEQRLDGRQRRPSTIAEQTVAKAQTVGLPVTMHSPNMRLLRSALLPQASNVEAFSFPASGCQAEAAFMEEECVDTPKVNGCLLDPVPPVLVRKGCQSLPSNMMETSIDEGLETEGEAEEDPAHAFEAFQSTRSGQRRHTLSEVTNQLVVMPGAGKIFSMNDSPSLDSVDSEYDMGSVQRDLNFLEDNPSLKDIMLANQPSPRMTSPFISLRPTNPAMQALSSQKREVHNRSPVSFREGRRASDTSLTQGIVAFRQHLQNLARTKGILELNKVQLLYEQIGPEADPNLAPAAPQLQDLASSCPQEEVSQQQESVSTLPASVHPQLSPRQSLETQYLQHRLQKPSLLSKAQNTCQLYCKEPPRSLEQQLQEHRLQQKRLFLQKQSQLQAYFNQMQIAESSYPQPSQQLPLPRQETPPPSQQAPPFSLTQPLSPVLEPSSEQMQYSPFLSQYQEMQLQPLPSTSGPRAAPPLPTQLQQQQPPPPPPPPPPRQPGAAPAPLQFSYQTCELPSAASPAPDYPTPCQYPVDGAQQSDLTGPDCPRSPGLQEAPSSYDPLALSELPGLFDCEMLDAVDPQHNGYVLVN

[12] = tested on: human tumor xenographs; test: Growth of human tumor xenographs in athymic mice; assay type: in vivo; conditions: systemic administration
[13] = Groups 1, 5: one dose day 1, 0.5 hr post-dose
[14] = Groups 1, 5: one dose day 1, 24 hr post-dose

In the case of `Cl.NC(=O)c1c(OCc2c(F)cc(Br)cc2F)nsc1NC(=O)NCCCCN1CCCC1` [Compound-I, 3-[(4-bromo-2,6-difluorophenyl)methoxy]-5-[[[[4-(1-pyrrolidinyl)butyl]amino]carbonyl]amino]-4-isothiazolecarboxamide hydrochloride], the Pathologic angiogenesis [1] is reported as “inhibit”, the inhibition at 1 µM [2] is reported as 95% and the inhibition at 0.3 µM ([3]; read-out: Mean % Inhibition at 300 nM Compound-I, 300 nM (170.67 ng/mL)) is reported as 103%. For the same compound, the inhibition at 1 µM ([3]; read-out: Mean % Inhibition at 1 μM Compound-I, 1 μM (568.9 ng/mL)) was 99%, the “Mean % Inhibition at 300 nM Compound-I” value [4] was “completely inhibited” and the inhibition at 1 µM [5] was 81%. For the same compound, the “Microscopic evaluation of eyes” value ([6]; 0.3% w/v Tris-based suspension twice daily for 30 days) was “considered normal”, the “Findings attributed to test-article or vehicle” value ([6]; 0.6% cyclodextrin-based solution, 30 days topical ocular dosing) was “no untoward findings” and the concentration at 29 days ([6]; rabbit, central choroid, read-out: Central Choroid [Compound I]) was 340 to 496 nM. The concentration at 29 days ([6]; rabbit, cornea, read-out: Cornea [Compound I]) was 236000 to 260000 nM, the “Retinal function (full-field electroretinograms)” value ([6]; all test article groups) was “normal” and the “Cornea concentration above which ocular side effects were more consistently observed” value ([6]; discomfort, inflammation, corneal thinning) was “exceeded 100 μM”. For the same compound, the Corneal tissue exposure ([6]; ophthalmic gel drops, topical ocular dosing) was no less than 100 µM, the “Corneal concentration, Gel Drop compared to Tris-based suspensions” value ([6]; rabbit, in vivo) was “fifty-fold to hundred-fold higher” and the “Corneal concentration, Gel Drop compared to cyclodextrin based solution” value ([6]; rabbit, in vivo) was “five-fold to fifteen-fold higher”. The “Ocular tolerability (clinical ophthalmic examinations)” value ([6]; rabbit, in vivo) was “well tolerated”, the “Reduction of corneal exposure versus Gel Drop” value ([6]; suspension-based and cyclodextrin formulations) was 10-100 × and the “Reduction in corneal concentrations, cyclodextrin-based solution versus equimolar Gel Drop” value ([6]; topical ocular dosing 1 to 30 days, hydrochloride) was roughly 10 fold. The inhibition at 1 µM [7] was 86%, the concentration at 1 h ([8]; aqueous humor (AH), read-out: Mean [AH]) was 50.9 nM and the concentration at 1 h ([8]; plasma, read-out: [plasma]) was 12.5 nM. The concentration at 0.5 h ([9]; aqueous humor, 30 μL (bilateral), Groups 1, 5: one dose day 1, 0.5 hr post-dose, read-out: Average Concentration Aqueous Humor) was 1.62 nM, the concentration at 8 h ([9]; aqueous humor, 30 μL (bilateral), Groups 1, 5: one dose day 1, 8 hr post-dose, read-out: Average Concentration Aqueous Humor) was 6.67 nM and the concentration at 24 h ([9]; aqueous humor, 30 μL (bilateral), Groups 1, 5: one dose day 1, 24 hr post-dose, read-out: Average Concentration Aqueous Humor) was 3.03 nM. It also gave a concentration at 4 h ([9]; aqueous humor, 30 μL bilateral (each eye), Group 5: one dose day 1, 4 hr post-dose, read-out: Average Concentration Aqueous Humor) of 9.11 nM, a concentration at 2 h ([9]; aqueous humor, 30 μL bilateral (each eye), Groups 1, 5: one dose day 1, 2 hr post-dose, read-out: Average Concentration Aqueous Humor) of 8.62 nM and a concentration at 1 h ([9]; aqueous humor, 30 μL bilateral, Groups 1, 5: one dose day 1, 1 hr post-dose, read-out: Average Concentration Aqueous Humor) of 1.08 nM. For the same compound, the concentration at 1 h ([9]; central choroid, 30 μL (bilateral), q.d. groups (2,4,6,8,10,11,13,15,17), 4 days, 1 hr after day 5 morning dose, read-out: Average Concentration Central Choroid) was 196 nM, the concentration at 24 h ([9]; central choroid, 30 μL (bilateral, each eye), q.d. groups (2,6,8,11,13), 4 days, 24 hr after day 5 morning dose, read-out: Average Concentration Central Choroid) was 319 nM and the concentration at 24 h ([9]; central choroid, 30 μL per eye (bilateral), b.i.d. groups (3,7), 4 days, 24 hr after day 5 morning dose, read-out: Average Concentration Central Choroid) was 283 nM. The concentration at 24 h ([9]; central choroid, 30 μL, q.d. groups (2,6,8,11,13), 4 days, 24 hr after day 5 morning dose, read-out: Average Concentration Central Choroid) was 218 nM, the concentration at 8 h ([9]; central retina, 30 μL (bilateral), Groups 1, 5: one dose day 1, 8 hr post-dose, read-out: Average Concentration Central Retina) was 30.4 nM and the concentration at 1 h ([9]; central retina, 30 μL (bilateral), q.d. groups (2,4,6,8,10,11,13,15,17), 4 days, 1 hr after day 5 morning dose, read-out: Average Concentration Central Retina) was 36.3 nM. For the same compound, the concentration at 24 h ([9]; central retina, 30 μL (bilateral), q.d. groups (2,6,8,11,13), 4 days, 24 hr after day 5 morning dose, read-out: Average Concentration Central Retina) was 24.1 nM, the concentration at 4 h ([9]; central retina, 30 μL bilateral (each eye), Group 5: one dose day 1, 4 hr post-dose, read-out: Average Concentration Central Retina) was 29.9 nM and the concentration at 2 h ([9]; central retina, 30 μL bilateral (each eye), Groups 1, 5: one dose day 1, 2 hr post-dose, read-out: Average Concentration Central Retina) was 35.4 nM. The concentration at 24 h ([9]; central retina, 30 μL per eye (bilateral), b.i.d. groups (3,7), 4 days, 24 hr after day 5 morning dose, read-out: Average Concentration Central Retina) was 29.2 nM, the concentration at 8 h ([9]; central retina, 30 μL per eye (bilateral), q.d. groups (2,6), 4 days, 8 hr after day 5 morning dose, read-out: Average Concentration Central Retina) was 38 nM and the concentration at 24 h ([9]; central retina, 30 μL per eye (bilateral), q.d. groups (2,6,8,11,13), 4 days, 24 hr after day 5 morning dose, read-out: Average Concentration Central Retina) was 24.6 nM. The concentration at 1 h ([9]; central retina, 30 μL, b.i.d. groups (3,7,9,12,14,16), 4 days, 1 hr after day 5 morning dose, read-out: Average Concentration Central Retina) was 40.7 nM, the concentration at 4 h ([9]; cornea, 30 μL (bilateral), Group 5: one dose day 1, 4 hr post-dose, read-out: Average Concentration Cornea) was 14100 nM and the concentration at 2 h ([9]; cornea, 30 μL bilateral (each eye), Groups 1, 5: one dose day 1, 2 hr post-dose, read-out: Average Concentration Cornea) was 28100 nM. The concentration at 1 h ([9]; cornea, 30 μL bilateral, Groups 1, 5: one dose day 1, 1 hr post-dose, read-out: Average Concentration Cornea) was 16900 nM, the concentration at 4 h ([9]; peripheral choroid, 30 μL (bilateral), Group 5: one dose day 1, 4 hr post-dose, read-out: Average Concentration Peripheral Choroid) was 77.5 nM and the concentration at 8 h ([9]; peripheral choroid, 30 μL (bilateral), Groups 1, 5: one dose day 1, 8 hr post-dose, read-out: Average Concentration Peripheral Choroid) was 87.4 nM. The concentration at 24 h ([9]; peripheral choroid, 30 μL (bilateral), Groups 1, 5: one dose day 1, 24 hr post-dose, read-out: Average Concentration Peripheral Choroid) was 88 nM, the concentration at 1 h ([9]; peripheral choroid, 30 μL bilateral, Groups 1, 5: one dose day 1, 1 hr post-dose, read-out: Average Concentration Peripheral Choroid) was 47.3 nM and the concentration at 24 h ([9]; peripheral choroid, 30 μL per eye (bilateral), b.i.d. groups (3,7), 4 days, 24 hr after day 5 morning dose, read-out: Average Concentration Peripheral Choroid) was 892 nM. It also gave a concentration at 1 h ([9]; peripheral choroid, 30 μL per eye (bilateral), b.i.d. groups (3,7,12,14,16), 4 days, 1 hr after day 5 morning dose, read-out: Average Concentration Peripheral Choroid) of 765 nM, a concentration at 8 h ([9]; peripheral retina, 30 μL (bilateral), Groups 1, 5: one dose day 1, 8 hr post-dose, read-out: Average Concentration Peripheral Retina) of 33.3 nM and a concentration at 24 h ([9]; peripheral retina, 30 μL (bilateral), Groups 1, 5: one dose day 1, 24 hr post-dose, read-out: Average Concentration Peripheral Retina) of 15.1 nM. It also gave a concentration at 1 h ([9]; peripheral retina, 30 μL (bilateral), q.d. groups (2,4,6,8), 4 days, 1 hr after day 5 morning dose, read-out: Average Concentration Peripheral Retina) of 96.1 nM, a concentration at 4 h ([9]; peripheral retina, 30 μL bilateral (each eye), Group 5: one dose day 1, 4 hr post-dose, read-out: Average Concentration Peripheral Retina) of 31.2 nM and a concentration at 0.5 h ([9]; peripheral retina, 30 μL bilateral, Groups 1, 5: one dose day 1, 0.5 hr post-dose, read-out: Average Concentration Peripheral Retina) of 22.7 nM. For the same compound, the concentration at 8 h ([9]; peripheral retina, 30 μL per eye (bilateral), q.d. groups (2,6), 4 days, 8 hr after day 5 morning dose, read-out: Average Concentration Peripheral Retina) was 50.8 nM, the concentration at 1 h ([9]; peripheral retina, 30 μL, b.i.d. groups (3,7,12,14,16), 4 days, 1 hr after day 5 morning dose, read-out: Average Concentration Peripheral Retina) was 108 nM and the “Average Concentration Central Choroid” value ([9]; Group 5: one dose day 1, 4 hr post-dose) was “<LLOQ”. The “Average Concentration Central Choroid” value [9, 13] was “<LLOQ”, the “Average Concentration Peripheral Choroid” value [9, 13] was “<LLOQ” and the “Average Concentration Central Choroid” value ([9]; Groups 1, 5: one dose day 1, 1 hr post-dose) was “<LLOQ”. For the same compound, the “Average Concentration Central Choroid” value ([9]; Groups 1, 5: one dose day 1, 2 hr post-dose) was “<LLOQ”, the “Average Concentration Central Choroid” value ([9]; Groups 1, 5: one dose day 1, 8 hr post-dose) was “<LLOQ” and the “Average Concentration Central Choroid” value [9, 14] was “<LLOQ”. The “Average Concentration Central Retina” value [9, 14] was “<LLOQ”, the “Corneal concentration, range over solutions” value [10] was 6.49 to 30 µM and the concentration at 1 h ([10]; aqueous humor, read-out: Aqueous humor concentration, range over solutions) was 2 to 7 nM. The concentration at 1 h ([10]; central retina, read-out: Central retina concentration, range over solutions) was 53.1 to 124 nM, the inhibition at 1 µM [11] was 82% and the “Growth of human tumor xenographs” value [12] was “inhibit”.
